Measurements taken from patent publication US20260124170A1, “PHARMACEUTICAL COMPOSITION COMPRISING METABOLITE OF ENAVOGLIFLOZIN, AND USE THEREOF” (DAEWOONG PHARMACEUTICAL CO., LTD., priority 2022, published 2026).
Where two headings read alike, the source gives them in different places.

Legend:
human hepatocytes = conditions: cited from earlier work
SGLT1 = biological target: T1, SGLT1 (Homo sapiens, UniProt P13866); assay: Change in SGLT1 inhibition according to drug pretreatment time (CHO-SGLT1); assay type: cell-based; conditions: for IC50: CHO-SGLT1; for Change in SGLT1 inhibition as exposure time increased: pretreatment 0, 1, 2 h, one-way ANOVA
T1 construct: expressed in transfected cells
T1 sequence (P13866 1-664): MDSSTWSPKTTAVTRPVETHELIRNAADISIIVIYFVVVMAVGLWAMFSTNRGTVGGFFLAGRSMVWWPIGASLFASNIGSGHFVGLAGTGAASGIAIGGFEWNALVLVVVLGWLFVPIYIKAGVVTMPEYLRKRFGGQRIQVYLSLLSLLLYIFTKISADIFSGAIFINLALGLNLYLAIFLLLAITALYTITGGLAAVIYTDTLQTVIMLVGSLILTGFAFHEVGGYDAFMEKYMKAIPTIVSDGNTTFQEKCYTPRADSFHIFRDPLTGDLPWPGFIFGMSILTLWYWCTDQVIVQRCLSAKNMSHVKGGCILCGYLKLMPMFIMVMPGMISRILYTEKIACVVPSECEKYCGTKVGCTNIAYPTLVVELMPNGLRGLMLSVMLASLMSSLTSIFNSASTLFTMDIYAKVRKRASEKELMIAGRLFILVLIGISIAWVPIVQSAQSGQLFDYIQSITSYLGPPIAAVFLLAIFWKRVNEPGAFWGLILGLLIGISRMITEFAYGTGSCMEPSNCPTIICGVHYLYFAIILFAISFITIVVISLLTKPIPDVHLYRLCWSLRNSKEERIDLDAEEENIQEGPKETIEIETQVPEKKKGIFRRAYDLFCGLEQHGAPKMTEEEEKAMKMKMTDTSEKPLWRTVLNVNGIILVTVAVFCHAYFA
Source text: All data values are expressed as the mean±SD of […].

SGLT2 = biological target: T2, SGLT2 (Homo sapiens, UniProt P31639); assay: Inhibition of [14C]AMG uptake in SGLT2-overexpressing CHO cells; assay type: cell-based; conditions: for IC50: CHO-SGLT2 cells, 10 μM [14C]AMG, 2 h, 37° C.; for IC50 ratio (SGLT1/SGLT2): ratio of SGLT1 IC50 to SGLT2 IC50
T2 construct: expressed in transfected cells
T2 sequence (P31639 1-672): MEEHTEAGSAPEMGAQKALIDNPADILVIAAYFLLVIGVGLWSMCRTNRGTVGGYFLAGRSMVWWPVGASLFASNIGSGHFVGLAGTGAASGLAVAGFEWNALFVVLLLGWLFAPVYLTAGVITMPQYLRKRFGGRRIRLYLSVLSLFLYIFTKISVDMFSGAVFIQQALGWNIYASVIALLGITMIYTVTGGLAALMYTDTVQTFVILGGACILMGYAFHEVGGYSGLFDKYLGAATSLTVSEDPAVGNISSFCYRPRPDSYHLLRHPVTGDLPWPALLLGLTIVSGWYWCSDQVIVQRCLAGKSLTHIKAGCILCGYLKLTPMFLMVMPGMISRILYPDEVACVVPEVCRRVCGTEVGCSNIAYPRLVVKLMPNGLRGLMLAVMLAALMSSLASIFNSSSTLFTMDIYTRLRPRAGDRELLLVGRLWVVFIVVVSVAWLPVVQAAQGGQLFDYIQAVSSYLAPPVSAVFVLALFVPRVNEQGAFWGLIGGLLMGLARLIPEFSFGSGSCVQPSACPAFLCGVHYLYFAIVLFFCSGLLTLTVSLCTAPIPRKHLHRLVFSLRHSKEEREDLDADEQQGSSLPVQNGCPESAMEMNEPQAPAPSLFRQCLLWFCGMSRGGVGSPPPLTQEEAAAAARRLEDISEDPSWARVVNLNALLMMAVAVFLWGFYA
Protocol: The evaluation was performed in the same manner as the evaluation of SGLT1 inhibition, except that an SGLT2-overexpressing cell line (CHO-SGLT2 stable cells) was used, and the inhibitory evaluation substances described below were used.

[1] = IC50 according to pretreatment time (nM), SGLT1, 1 h, 1 h pretreatment in sodium-free buffer
[2] = IC50 according to pretreatment time (nM), SGLT1, 2 h, 2 h pretreatment in sodium-free buffer
[3] = no pretreatment, read-out: IC50 according to pretreatment time (nM), SGLT1, 0 h

| IC50 (SGLT1; [1]) | IC50 (SGLT1; [2]) | IC50 (SGLT1; [3]) | IC50 (SGLT2) | IC50 ratio (SGLT1/SGLT2) (SGLT2) | SMILES | Number of metabolites produced in human hepatocytes (human hepatocytes; M1, M2, M3, U1, U2) | Change in SGLT1 inhibition as exposure time increased (SGLT1) | Enzymes catalyzing formation of the metabolite (human hepatocytes) |
| --- | --- | --- | --- | --- | --- | --- | --- | --- |
| 889 ± 238 nM | 829 ± 194 nM | 867 ± 163 nM | 0.00034 ± 8e-05 µM | 2538 | OC[C@H]1O[C@@H](c2cc(Cc3ccc(C4CC4)cc3)c(Cl)c3c2CCO3)[C@H](O)[C@@H](O)[C@@H]1O [Enavogliflozin, (2S,3R,4R,5S,6R)-2-(7-chloro-6 (4-cyclopropylbenzyl)-2,3-dihydrobenzofuran-4-yl)-6-(hydroxymethyl)tetrahydro-2H-pyran-3,4,5-triol] | five | did not show any significant change or increase in inhibition | – |
| 103 ± 22.4 nM | 76.6 ± 1.2 nM | 29.2 ± 13.5 nM | 0.00471 ± 0.00069 µM | 6.0 | OC[C@H]1O[C@@H](c2cc(Cc3ccc(C4CC4)cc3)c(Cl)c3c2CC(O)O3)[C@H](O)[C@@H](O)[C@@H]1O (stereo partly drawn) [M1, (2S,3R,4R,5S,6R)-2-(7-chloro-6-(4-cyclopropylbenzyl)-2-hydroxy-2,3-dihydrobenzofuran-4-yl)-6-(hydroxymethyl)tetrahydro-2H-pyran-3,4,5-triol] | – | significantly increased | CYP3A4 and CYP2C19 |
| 1020 ± 225 nM | 1180 ± 177 nM | 1080 ± 71 nM | 0.00302 ± 0.00036 µM | 402 | OC[C@H]1O[C@@H](c2cc(Cc3ccc(C4(O)CC4)cc3)c(Cl)c3c2CCO3)[C@H](O)[C@@H](O)[C@@H]1O [M2, (2S,3R,4R,5S,6R)-2-(7-chloro-6-(4-(1-hydroxycyclopropyl)benzyl)-2,3-dihydrobenzofuran-4-yl)-6-(hydroxymethyl)tetrahydro-2H-pyran-3,4,5-triol] | – | did not show any significant change or increase in inhibition | CYP3A4 and CYP2C19 |
